Results on twelve molecules are retold here after ChEMBL document CHEMBL1201862, “PubChem BioAssay data set” (2004).

Among the test systems are HCT-15; KM12; NCI-H226; EKVX; SF-295; SNB-75; M14; MDA-MB-435; SN12C; TK-10; SK-MEL-28; SK-MEL-2; SK-OV-3; OVCAR-4; MDA-MB-231; A549; SNB-19; CAKI-1; MDA-N.
Holding throughout (experiment): NCI anticancer screen, dose series, 48 h

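Dose response: 5 concentrations. Exposure: 48 h. Format: 96-well plates. Endpoint: linear interpolation; highest concentration if not reached. The concentration for 50% growth inhibition is given as GI50.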 Calls of active or inactive are those of the source. Cut-off read from the data, not from the text of the source: active = GI50 up to about 1.1 µM and inactive = higher.

In the case of `CN(C)CCNCCCNc1c2ccccc2nc2cccc([N+](=O)[O-])c12`, the GI50 is 0.0826 µM in the test on HCT-15; 0.027 µM (active) with KM12; 0.0248 µM (active) in the test on NCI-H226; < 0.017 µM (active) in the test on EKVX; < 0.0163 µM (active) in the test on SF-295; 0.0173 µM (active) in the test with SNB-75. In addition, the GI50 in the test with M14 was 0.0224 µM (active); in the test on MDA-MB-435, < 0.0144 µM (active); in the test with SN12C, < 0.0208 µM (active); with TK-10, 0.046 µM (active); with SK-MEL-28 it was 0.188 µM (active); in the test with SK-MEL-2, 0.0197 µM (active). The GI50 in the test with SK-OV-3 was 0.0424 µM (active); in the test on OVCAR-4 it was < 0.0129 µM (active); with MDA-MB-231, < 0.0129 µM (active); with A549 it was < 0.017 µM (active); with SNB-19, 0.0298 µM (active); in the test with CAKI-1, 0.0385 µM (active).

As to `C=CCC(OCCOCC)c1cc(OCCOCC)ccc1OC` (centres undefined), the GI50 with HCT-15 was over 100 µM; with KM12, > 100 µM (inactive); in the test with NCI-H226 it was > 100 µM (inactive); in the test with EKVX, > 100 µM (inactive); in the test on SF-295, > 100 µM (inactive); with SNB-75, > 100 µM (inactive). Besides, the GI50 in the test on M14, in the test with SN12C, in the test with TK-10, with SK-MEL-28, with SK-MEL-2 and in the test on SK-OV-3 was > 100 µM (inactive) throughout. Also, the GI50 in the test with OVCAR-4, in the test on A549, in the test with SNB-19 and in the test on CAKI-1 was > 100 µM (inactive) each time.

Consider `CC(C)CC[C@H](O)[C@@H](C)[C@H]1[C@@H](OC2OC(C)C(O)C(O)C2O)C[C@H]2[C@@H]3CC=C4C[C@@H](O)CC[C@]4(C)[C@H]3[C@@H](O)C[C@]12C` (some centres undefined), for which the GI50 is over 56.1 µM with HCT-15; 3.28 µM (inactive) in the test on KM12; 11.4 µM (inactive) in the test with EKVX; 0.0402 µM (active) in the test on SF-295; 5.4 µM (inactive) in the test with SNB-75; 1.55 µM (inactive) in the test on M14. Also, the GI50 with MDA-MB-435 was 1.55 µM (inactive); in the test on SN12C, > 100 µM (inactive); in the test on TK-10 it was 0.692 µM (active); with SK-MEL-28, 0.506 µM (active); with SK-MEL-2 it was > 27 µM (inactive); in the test on SK-OV-3, > 100 µM (inactive). For the same molecule, the GI50 in the test with SNB-19 is > 100 µM (inactive); in the test with CAKI-1, 2.58 µM (inactive).

Take `Oc1nc(S)nc2nc3c4cccnc4c4ccccc4c3nc12`: the GI50 in the test on HCT-15 is over 100 µM; in the test on KM12 it was 79.8 µM (inactive); in the test on EKVX it was > 100 µM (inactive); in the test on SF-295, > 100 µM (inactive); in the test on SNB-75, 48.4 µM (inactive); with M14, > 100 µM (inactive). Moreover, the GI50 was > 100 µM (inactive) in the test with MDA-N; > 100 µM (inactive) with MDA-MB-435; > 100 µM (inactive) with SN12C; > 100 µM (inactive) in the test with TK-10; 77.1 µM (inactive) with SK-MEL-28; > 100 µM (inactive) in the test with SK-OV-3. The GI50 with OVCAR-4, with A549, in the test on SNB-19 and in the test on CAKI-1 was > 100 µM (inactive) in each case.

On to `COc1cc(/C=C(\NC(=O)c2ccccc2)c2nc3c(O)nc(S)nc3[nH]2)cc(OC)c1OC`, for which the GI50 is over 100 µM in the test with HCT-15; > 100 µM (inactive) in the test with KM12; > 100 µM (inactive) in the test with EKVX; > 100 µM (inactive) in the test on SF-295; > 100 µM (inactive) in the test on M14; > 100 µM (inactive) in the test on SN12C. Further, the GI50 in the test on TK-10, in the test on SK-MEL-28, with SK-MEL-2, with SK-OV-3, in the test with OVCAR-4 and in the test with A549 was > 100 µM (inactive) in each case. For the same molecule, the GI50 in the test with SNB-19 and with CAKI-1 was > 100 µM (inactive) throughout.

On to `CCOC(=O)C(NC(=O)CC(C)C)(Nc1ccc(C(F)(F)F)cc1)C(F)(F)F` (centres undefined), for which the GI50 is 29 µM in the test on HCT-15; 14.7 µM (inactive) with KM12; > 100 µM (inactive) in the test on NCI-H226; > 100 µM (inactive) with EKVX; > 100 µM (inactive) with SF-295; 6.31 µM (inactive) in the test with SNB-75. Besides, the GI50 is > 100 µM (inactive) in the test with M14; 32.6 µM (inactive) in the test with MDA-N; > 100 µM (inactive) with MDA-MB-435; > 100 µM (inactive) in the test with SN12C; 40.5 µM (inactive) in the test with TK-10; > 100 µM (inactive) with SK-MEL-28. The GI50 in the test with SK-MEL-2 was 15.7 µM (inactive); in the test with SK-OV-3, > 100 µM (inactive); in the test on OVCAR-4 it was 35.4 µM (inactive); with A549, > 100 µM (inactive); in the test on SNB-19, > 100 µM (inactive).

As to `CCCC(Sc1ccccc1)P(=O)(c1ccccc1)c1ccccc1` (centres undefined), the GI50 with KM12 was 38.7 µM (inactive); in the test with EKVX, 24 µM (inactive); in the test on SF-295, 27.8 µM (inactive); with SNB-75, 28.6 µM (inactive); in the test on M14, 35.2 µM (inactive); in the test on SN12C it was 43.5 µM (inactive). For the same molecule, the GI50 in the test with TK-10 was 40 µM (inactive); in the test on SK-MEL-28, 42.1 µM (inactive); in the test with SK-OV-3 it was 22.7 µM (inactive); in the test on OVCAR-4, 37.8 µM (inactive); in the test with A549, 28.8 µM (inactive); with SNB-19 it was > 100 µM (inactive). Further, the GI50 in the test with CAKI-1 was 42.3 µM (inactive).

For the molecule `CC(=O)O[C@H]1[C@@H](N2CCCCC2)C[C@H]2[C@@H]3CC=C4C[C@@H](N5CCCC5)CC[C@]4(C)[C@H]3CC[C@@]21C`, the GI50 with HCT-15 is 19.4 µM; in the test on KM12 it was > 100 µM (inactive); in the test on NCI-H226, > 100 µM (inactive); with EKVX, > 100 µM (inactive); in the test with SF-295 it was 67.5 µM (inactive); with SNB-75, > 100 µM (inactive). The GI50 in the test on M14 is 19.2 µM (inactive); in the test with MDA-MB-435 it was 28.6 µM (inactive); in the test with SN12C it was > 100 µM (inactive); in the test with TK-10 it was > 100 µM (inactive); with SK-MEL-28, 22 µM (inactive); in the test with SK-MEL-2, > 100 µM (inactive). Besides, the GI50 in the test with SK-OV-3, with OVCAR-4, with MDA-MB-231, with A549, with SNB-19 and with CAKI-1 was > 100 µM (inactive) in each case.

In the case of `Cc1ccc(C(=O)/C=C/N2CCN(c3cccc(C(F)(F)F)c3)CC2)cc1`, the GI50 with HCT-15 was 15.6 µM; in the test on KM12, 18.7 µM (inactive); with NCI-H226, 16.9 µM (inactive); with EKVX, 18.7 µM (inactive); in the test on SF-295 it was 17.5 µM (inactive); in the test on SNB-75, 16.9 µM (inactive). Besides, the GI50 in the test with M14 is 16.9 µM (inactive); with MDA-MB-435, 16.9 µM (inactive); with SN12C it was 18.5 µM (inactive); with TK-10, 25.3 µM (inactive); in the test with SK-MEL-28, 19.7 µM (inactive); in the test on SK-MEL-2, 18.6 µM (inactive). Further, the GI50 in the test on SK-OV-3 is 35.1 µM (inactive); in the test with OVCAR-4, 43.7 µM (inactive); with MDA-MB-231, 14.6 µM (inactive); with A549, 22.9 µM (inactive); in the test on SNB-19, 30.1 µM (inactive); with CAKI-1, 17.8 µM (inactive).

Take `COC(=O)[C@@]1(C)C(=O)CC[C@@H]1C=O`: the GI50 in the test with HCT-15 was over 100 µM; in the test with KM12, > 100 µM (inactive); in the test with NCI-H226, > 100 µM (inactive); with EKVX it was > 100 µM (inactive); in the test on SF-295, > 100 µM (inactive); with M14, > 100 µM (inactive). The GI50 with SN12C, in the test with TK-10, in the test with SK-MEL-2, with SK-OV-3, in the test on OVCAR-4 and in the test with A549 was > 100 µM (inactive) in each case. Moreover, the GI50 in the test on SNB-19 and in the test with CAKI-1 was > 100 µM (inactive) each time.

On to `O=C1C2=C(c3ccccc31)C(c1ccc(Cl)cc1)N1C(=O)CCSC1=N2` (centres undefined), for which the GI50 in the test on HCT-15 was 67.8 µM; with KM12 it was 99.5 µM (inactive); in the test with NCI-H226, 51.8 µM (inactive); in the test on EKVX it was 68.2 µM (inactive); in the test with SF-295, 99.3 µM (inactive); in the test with SNB-75, 43.2 µM (inactive). Also, the GI50 in the test on M14 was > 100 µM (inactive); with SN12C, 44.6 µM (inactive); in the test on TK-10, > 100 µM (inactive); in the test on SK-MEL-28, > 100 µM (inactive); with SK-MEL-2 it was > 100 µM (inactive); in the test with SK-OV-3 it was > 100 µM (inactive). Also, the GI50 with OVCAR-4 was 36.1 µM (inactive); in the test on A549, 69.3 µM (inactive); in the test with SNB-19, > 100 µM (inactive); in the test on CAKI-1 it was > 100 µM (inactive).

`CS(=O)(=O)c1c(N)c2nc(Cl)cn2c2nc3ccccc3nc12`: the GI50 is over 100 µM with HCT-15; > 100 µM (inactive) in the test with KM12; > 100 µM (inactive) in the test with NCI-H226; > 100 µM (inactive) in the test on EKVX; > 100 µM (inactive) in the test with SF-295; 81.3 µM (inactive) with SNB-75. The GI50 in the test on M14, in the test on SN12C, with SK-MEL-28, with SK-MEL-2, in the test with SK-OV-3 and with OVCAR-4 was > 100 µM (inactive) throughout. In addition, the GI50 in the test on A549, with SNB-19 and in the test on CAKI-1 was > 100 µM (inactive) in each case.
